Source: US4677113A, “Di-t-butylphenols substituted by a thenoyl group” (Riker Laboratories, Inc., priority 1986, dated 1987)
Like-named read-outs stand apart in the source and are kept apart here.

Experiments:
[1] = tested on: bronchoconstriction in sensitized guinea pigs; test: antigen-induced bronchoconstriction in sensitized guinea pigs (frequency of notching); assay type: in vivo, guinea pig; conditions: Cavia porcellus, male Hartley guinea pigs pretreated with antihistamine, read-out: ED40, inhibition of bronchoconstriction
Description: Preferably, bronchoconstriction in sensitized guinea pigs is measured upon antigen challenge. This test is described in broad terms by Piechuta, et al., Immunology, 38, 385 (1979) and more specifically by Hammerbeck and Swingle, Int. Archs. Allergy Appl. Immun. 74, 84-90 (1984), both references being incorporated herein by reference. It was used in a modified form as follows: Male Hartley guinea pigs (250-600 g) which were pretreated with an antihistamine, e.g., chlorpheniramine and then dosed intraperitoneally with a compound of the invention at a level of about 1 to 40 mg/kg 15 minutes prior to challenge or orally at the same dose 30 minutes prior to challenge were aerosol challenged with either water or ovalbumim at a concentration of 10 mg per ml. The animals were placed under an inverted dessicator jar (18×14 cm) with a constant flow of air coming into the chamber from a compressed-air source to prevent hypoxia. Air flow leaving the chamber and fluctuations due to respiration were monitored through a separate outlet with a Fleisch No. 0000 pneumotachograph (available from Beckman Instruments, Inc., Schiller Park, Ill.) coupled to a Beckman Type R dynograph (available from Beckman Instruments, Inc.). Aerosolization through a third outlet was made via a No. 4 DeVilbiss nebulizer (available from the DeVilbiss Company, Somerset, PA) for 90 seconds at 150 mm Hg. […]

[2] = tested on: leukotriene synthesis in homogenized rat basophil leukemia cells; test: cell free leukotriene biosynthesis system (homogenized rat basophil leukemia cells, radioimmunoassay); assay type: biochemical; conditions: synthesis initiated by arachidonate; drug preincubated five minutes; read-out: IC50, leukotriene synthesis inhibition
Description: This test utilizes the cell free leukotriene biosynthesis system of M. Steinhoff et al. Biochim. Acta. 68, 28 (1980), incorporated herein by reference, which consists of homogenized rat basophil leukemia cells. Leukotriene synthesis is initiated by the addition of arachidonate. Solutions are centrifuged and supernatants assayed using a radioimmunoassay developed as described by Aeringhaus et al. FEBS Letter 146, 111-114. Drugs are dissolved in ethanol or dimethyl sulfoxide and then preincubated for five minutes. Phenidone is used as a positive control.

SMILES: CC(C)(C)c1cc(C(=O)c2ccc(C(=O)O)s2)cc(C(C)(C)C)c1O [5-(3',5'-di-t-butyl-4'-hydroxybenzoyl)thiophene-2-carboxylic acid]
- ED40 ([1]; ip, 0.25 h, administered intraperitoneally 15 minutes prior to ovalbumin aerosol challenge): < 10 mg/kg
- ED40 ([1]; po, 0.5 h, administered orally 30 minutes prior to ovalbumin aerosol challenge): < 25 mg/kg
- IC50 [2]: 15 µM
